{"source": "patent US10639345B2", "about": "“Compositions for preserving photoreceptor cells, retinal pigment epithelial cells, or visual function” (Massachusetts Eye and Ear Infirmary, priority 2010, dated 2020)", "key": {"photoreceptors [1]": {"test_system": "photoreceptors", "experiment": "TEM quantification of apoptotic and necrotic photoreceptor death after retinal detachment", "type": "in vivo", "conditions": "day three after retinal detachment, ONL", "procedure": "The morphology of photoreceptors after retinal detachment was examined by transmission electron microscopy (TEM) and propidium iodide (PI) staining and the effect of treatment with Z-VAD and/or a Nec-1 compound of Formula I-C was analyzed.\nTEM was performed as previously described (Hisatomi T et al. (2008). J. CLIN. INVEST. 118:2025-2038). […] Over 200 photoreceptors each eye were photographed and subjected to quantification of cell death modes in a masked fashion. Photoreceptors showing cellular shrinkage and nuclear condensation were defined as apoptotic cells, while photoreceptors associated with cellular and organelle swelling and discontinuities in nuclear and plasma membrane were defined as necrotic cells. The presence of electron-dense granular materials were reported to occur subsequent to both apoptotic and necrotic cell death and cells with these findings were labeled simply as end-stage cell death/unclassified (Hisatomi T et al. (2003) AM. J. PATHOL. 162:1869-1879; Erickson P A et al. (1983) INVEST. OPHTHALMOL. VIS. SCI. 24:927-942).\nOn day three after retinal detachment, photoreceptor death caused by apoptosis was almost twice that caused by necrosis in vehicle-treated retina (% apoptotic cells: 21.7±1.3%, necrotic cells: 13.3±1.0%, unclassified: 4.4±1.4%; FIGS. 7A and 7E)."}, "[2]": {"test_system": "CD11b-positive macrophage/microglia", "experiment": "CD11b immunohistochemistry after retinal detachment", "type": "in vivo", "conditions": "day three after retinal detachment", "procedure": "Immunohistochemistry (IHC) was performed as previously reported (Murakami Y et al. (2008) AM J PATHOL 173:1326-1338). Rat anti-CD11b antibody (1:50; BD Biosciences, San Diego, Calif.) was used as the primary antibody. The specimens were imaged by confocal microscopy using the Leica HCX APOL40× lens.\nSince the release of intracellular content in necrosis results in secondary inflammation, changes in the inflammatory response after retinal detachment were investigated by immunohistochemistry and immunofluorescence with an antibody against CD11b. FIG. 11A-B show IHC for CD11b (FIG. 11A) and quantification of CD11b-positive cells in control retina without retinal detachment and in retina treated with vehicle, Z-VAD or Z-VAD+Nec-1 (n=6 each) (FIG. 11B) at three days after retinal detachment. (*, P<0.05; **, P<0.01; NS, not significant; Scale bar, 50 μm)."}, "[3]": {"test_system": "CD11b-positive macrophage/microglia", "experiment": "CD11b immunofluorescence after retinal detachment in WT mice", "type": "in vivo", "procedure": "(§1) Immunofluorescence was performed as previously reported (Hisatomi et al. (2008) J CLIN INVEST 118:2025-2038. The enucleated eyes were frozen in OCT compound (Sakura Finetechnical Co., Tokyo, Japan). Five μm-thick sections were cut, air dried and fixed in cold acetone for 10 minutes. Rat anti-CD11b (1:50; BD Biosciences, San Diego, Calif.) was used as the primary antibody and incubated at 4° C. overnight. A nonimmune serum was used as a negative control. Alexa Fluor 594-conjugated goat anti-rat IgG (Invitrogen, Carlsbad, Calif.) was used as the secondary antibody and incubated at room temperature for one hour. The specimens were imaged by confocal microscopy using the Leica HCX APOL40× lens.\nFIG. 11C-D show immunofluorescence for CD11b (FIG. 11C) and quantification of CD11b-positive macrophage/microglia (FIG. 11D) in WT and RIP-3−/− retina after retinal detachment."}, "AIF": {"test_system": "AIF", "experiment": "AIF nuclear translocation (AIF/TUNEL double staining) after retinal detachment", "type": "in vivo", "conditions": "three days after retinal detachment", "procedure": "Immunohistochemistry (IHC) was performed as previously reported (Murakami Y et al. (2008) AM J PATHOL 173:1326-1338). Rabbit anti-AIF antibody (1:100; Cell Signaling Technology, Danvers, Mass.) was used as the primary antibody. The specimens were imaged by confocal microscopy using the Leica HCX APOL40× lens.\nas §1, with “Rabbit anti-AIF antibody (1:100; Cell Signaling Technology, Danvers, Mass.)” for “Rat anti-CD11b (1:50; BD Biosciences, San Diego, Calif.)”, “non-immune” for “nonimmune”, “488-conjugated” for “594-conjugated”, “anti-rabbit” for “anti-rat”, “IgG” for “IgG (Invitrogen, Carlsbad, Calif.)”\nApoptosis-inducing factor (AIF) is a caspase-independent inducer of cell death, which is released from the mitochondria and translocates into the nuclei during cell death (Susin S A et al. (1999) NATURE 397:441-446). […]"}, "photoreceptors [4]": {"test_system": "photoreceptors", "experiment": "Poly I:C-induced dry AMD model, TUNEL-positive cells in ONL", "type": "in vivo, mice", "conditions": "compared with vehicle", "excerpt": "In this example, the mechanism of photoreceptor cell death in dry AMD was investigated using a polyinosinic:polycytidylic acid (Poly I:C)-induced dry AMD model (Yang et al. (2009) NEJM 359(14):1456-63). Poly I:C is a synthetic double-stranded RNA (dsRNA) analog that activates toll-like receptor 3 (TLR3) signaling (FIG. 20A). Furthermore, dsRNA are known to exist in the drusen of human AMD patients. As depicted in FIG. 20A, activation of the TLR3 signaling results in activation of RIP-1 kinase pathway. […] In the experiments described herein, 2-3 μl of Poly I:C (1 mg/ml) was injected into the subretinal space of the eye (e.g., approximately 2-3 μg of Poly I:C was administered to the eye) to induce AMD.\nThe thickness of the ONL was determined by the National Institutes of Health ImageJ software. […] Specifically, the number of TUNEL-positive cells in the RIP-3−/− mice treated with poly I:C was at least three fold less than control mice consistent with RIP-3 playing a role in mediating programmed necrosis in AMD (FIG. 22B).\nTo determine the effect of Nec-1 and a pan-caspase inhibitor in the treatment of AMD, TUNEL assay was performed to assess photoreceptor cell death in the poly I:C induced AMD model. […] The thickness of ONL was also measured."}}, "note": "Where a SMILES comes first, the peptide text is derived from it. The star is where a group is joined. Cbz = O=C(OCc1ccccc1)*; CH2F = FC*", "data": [{"smiles": "COC(=O)CC(NC(=O)C(C)NC(=O)C(NC(=O)OCc1ccccc1)C(C)C)C(=O)CF", "note": "(stereo not drawn) [Z-VAD, Benzyloxycarbonyl-Val-Ala-Asp(OMe)-fluoromethylketone] (Cbz-Val-Ala-Asp(OMe)-CH2F; configuration not given here)", "values": [{"measurement": "% apoptotic cells (TEM)", "setting": "photoreceptors [1]", "value": "11.4±1.2", "unit": "%"}, {"measurement": "% necrotic cells (TEM)", "setting": "photoreceptors [1]", "value": "21.9±2.3", "unit": "%"}, {"measurement": "% unclassified (end-stage cell death, TEM)", "setting": "photoreceptors [1]", "value": "5.6±1.4", "unit": "%"}, {"measurement": "infiltration of CD11b-positive cells in the retina", "setting": "[2]", "value": "514.7±54.5", "unit": "cells/mm^2"}, {"measurement": "infiltration of CD11b-positive cells (immunofluorescence)", "setting": "[3]", "value": "significantly increased infiltration"}, {"measurement": "AIF/TUNEL-double positive cells (AIF nuclear translocation)", "setting": "AIF", "value": "1021.9±233.9", "unit": "cells/mm^2"}, {"measurement": "number of TUNEL-positive cells in ONL", "setting": "photoreceptors [4]", "value": "slight effect"}]}]}
